Laboratory results taken from PubChem BioAssay (NCI).
“And” between values parts separate entries of the source, which are not always exact repeats. Equal values may be shown once.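 A five-concentration, 48-hour dose response in 96-well plates underlies each endpoint, interpolated linearly between surrounding concentrations. Abbreviation: GI50, concentration required for 50% inhibition of growth. TGI is the concentration that stops growth completely.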

Tests used:
Assay in all cases: NCI tumour cell line growth inhibition, 48 h
SN12C renal = system: SN12C renal
SNB-75 CNS = system: SNB-75 CNS
SNB-19 CNS = system: SNB-19 CNS
TK-10 renal = system: TK-10 renal
CAKI-1 renal = system: CAKI-1 renal
RXF 393 renal = system: RXF 393 renal
IGROV1 ovarian = system: IGROV1 ovarian
BT-549 breast = system: BT-549 breast
A498 renal = system: A498 renal
MOLT-4 leukemia = system: MOLT-4 leukemia

CCc1n[nH]c(=O)n1N1C(=O)C2CC=CCC2C1=O (stereo unspecified)
TGI (SN12C renal): > 100 µM | TGI (SNB-75 CNS): > 100 µM | TGI (SNB-19 CNS): > 100 µM | TGI (TK-10 renal): > 100 µM | TGI (CAKI-1 renal): > 100 µM | TGI (RXF 393 renal): > 100 µM | TGI (IGROV1 ovarian): > 100 µM | TGI (BT-549 breast): > 100 µM | TGI (A498 renal): > 100 µM | TGI (MOLT-4 leukemia): > 100 µM

O=C(CN1CCN(C(=O)OCc2ccccc2)CCN(CC(=O)N2CCCCC2)CCN(C(=O)OCc2ccccc2)CC1)N1CCCCC1
TGI (SN12C renal): 26.8 µM | TGI (SNB-75 CNS): 16.5 µM | TGI (SNB-19 CNS): > 52.5 µM | TGI (TK-10 renal): 26.5 µM | TGI (CAKI-1 renal): 28.9 µM | TGI (RXF 393 renal): 39.1 µM | TGI (IGROV1 ovarian): 28.9 µM | TGI (BT-549 breast): > 50.5 µM | TGI (A498 renal): 47.1 µM | TGI (MOLT-4 leukemia): > 46 µM

CC(C)OP(=O)(CN(C)/C(F)=N\C(F)(F)F)OC(C)C
TGI (SN12C renal): > 100 µM | TGI (SNB-75 CNS): > 100 µM | TGI (SNB-19 CNS): > 100 µM | TGI (TK-10 renal): > 100 µM | TGI (CAKI-1 renal): > 100 µM | TGI (RXF 393 renal): > 100 µM | TGI (IGROV1 ovarian): > 100 µM | TGI (BT-549 breast): > 100 µM | TGI (A498 renal): > 100 µM | TGI (MOLT-4 leukemia): > 100 µM

COc1cc([C@@H]2c3cc4c(cc3[C@@H](NCCNCCO)[C@H]3COC(=O)[C@H]23)OCO4)cc(OC)c1O
GI50 (SN12C renal): 0.934 µM and 0.331 µM | TGI (SN12C renal): 24.1 µM and 3.19 µM | TGI (SNB-75 CNS): 8.64 µM and 5.94 µM | TGI (SNB-19 CNS): 19.2 µM and > 32.2 µM | TGI (TK-10 renal): 33.8 µM and 39.3 µM | TGI (CAKI-1 renal): 30.1 µM and > 59.5 µM | TGI (RXF 393 renal): 8.18 µM and 4.94 µM | TGI (IGROV1 ovarian): 20.2 µM and 12 µM | TGI (BT-549 breast): 7.03 µM and 5.49 µM | TGI (A498 renal): 19.9 µM

CC1(c2ccc(Cl)cc2)CC(c2ccc(Cl)cc2)=C(C#N)C(=C(C#N)C#N)N1 (stereo unspecified)
TGI (SN12C renal): 37.2 µM | TGI (SNB-75 CNS): 34.7 µM | TGI (SNB-19 CNS): 39.6 µM | TGI (TK-10 renal): 32.6 µM | TGI (CAKI-1 renal): 32.5 µM | TGI (RXF 393 renal): 32.1 µM | TGI (IGROV1 ovarian): 28.8 µM | TGI (BT-549 breast): 42.2 µM | TGI (A498 renal): 40 µM | TGI (MOLT-4 leukemia): 60.3 µM

COc1ccc(Cc2nc3cc(C(F)(F)F)ccc3n2CCCN(C)C)cc1
TGI (SNB-19 CNS): > 100 µM | TGI (TK-10 renal): 50.2 µM | TGI (CAKI-1 renal): 56 µM | TGI (RXF 393 renal): 29.2 µM | TGI (IGROV1 ovarian): 78.9 µM | TGI (BT-549 breast): 43.4 µM | TGI (A498 renal): 35.6 µM | TGI (MOLT-4 leukemia): 16.3 µM

NC1C/C(=N\O)c2c(I)sc(I)c21 (stereo unspecified)
TGI (SN12C renal): > 56.6 µM | TGI (SNB-75 CNS): 33.4 µM | TGI (SNB-19 CNS): 39.3 µM | TGI (TK-10 renal): 31.3 µM | TGI (CAKI-1 renal): 28.6 µM | TGI (RXF 393 renal): 35.8 µM | TGI (IGROV1 ovarian): 30.8 µM | TGI (BT-549 breast): 29.9 µM | TGI (A498 renal): > 58 µM | TGI (MOLT-4 leukemia): > 100 µM

Nc1nc(Cl)cc(NCC2(CO)CCC(Cc3ccccc3)C2)n1 (stereo unspecified)
TGI (SN12C renal): > 100 µM | TGI (SNB-75 CNS): > 89.9 µM | TGI (SNB-19 CNS): > 100 µM | TGI (TK-10 renal): > 77 µM | TGI (CAKI-1 renal): 95.6 µM | TGI (RXF 393 renal): > 80.5 µM | TGI (IGROV1 ovarian): > 100 µM | TGI (BT-549 breast): 78.7 µM | TGI (A498 renal): > 65.8 µM | TGI (MOLT-4 leukemia): 30.6 µM

CC(C)(C)c1ccc(CN2CCN(C(c3ccccc3)c3ccc(Cl)cc3)CC2)cc1 (stereo unspecified)
TGI (SN12C renal): > 100 µM | TGI (SNB-75 CNS): > 100 µM | TGI (SNB-19 CNS): > 100 µM | TGI (TK-10 renal): > 100 µM | TGI (CAKI-1 renal): > 100 µM | TGI (RXF 393 renal): 82.7 µM | TGI (IGROV1 ovarian): > 100 µM | TGI (BT-549 breast): > 100 µM | TGI (A498 renal): > 100 µM | TGI (MOLT-4 leukemia): > 100 µM

O=C(Cn1nc(Br)c(Br)c1Br)c1ccccc1
TGI (SN12C renal): > 100 µM | TGI (SNB-75 CNS): 63.8 µM | TGI (SNB-19 CNS): > 100 µM | TGI (TK-10 renal): 53.1 µM | TGI (CAKI-1 renal): 96.7 µM | TGI (RXF 393 renal): 36.4 µM | TGI (IGROV1 ovarian): > 100 µM | TGI (BT-549 breast): 80.4 µM | TGI (A498 renal): 85.8 µM | TGI (MOLT-4 leukemia): 12.3 µM

COC(=O)NCCc1[nH]nc2c1C(=O)C=C(Nc1ccccc1)C2=O
TGI (SN12C renal): > 100 µM | TGI (SNB-75 CNS): > 100 µM | TGI (SNB-19 CNS): > 100 µM | TGI (TK-10 renal): > 100 µM | TGI (CAKI-1 renal): > 100 µM | TGI (RXF 393 renal): > 100 µM | TGI (IGROV1 ovarian): 65.2 µM | TGI (BT-549 breast): > 100 µM | TGI (A498 renal): > 100 µM | TGI (MOLT-4 leukemia): 54.4 µM

CCC1CC2CN3CCc4c([nH]c5c(-c6c(OC)ccc7c8c([nH]c67)[C@]6(C(=O)OC)CC7CC(CC)C6N(CC8)C7)c(O)ccc45)[C@](C(=O)OC)(C2)C13 (stereo partly specified)
TGI (SNB-75 CNS): 48.8 µM | TGI (SNB-19 CNS): 35.8 µM | TGI (TK-10 renal): 33.4 µM | TGI (CAKI-1 renal): 25.2 µM | TGI (RXF 393 renal): 26.8 µM | TGI (IGROV1 ovarian): 31.3 µM | TGI (BT-549 breast): 33.7 µM | TGI (A498 renal): 28.7 µM | TGI (MOLT-4 leukemia): 16.7 µM

CC(=O)O[C@H]1C[C@]2(C)C(CCC3O[C@@]32C)[C@@]2(CC(c3ccoc3)OC2O)[C@@H]1C (stereo partly specified)
TGI (SN12C renal): > 100 µM | TGI (SNB-75 CNS): > 100 µM | TGI (SNB-19 CNS): > 100 µM | TGI (TK-10 renal): > 100 µM | TGI (CAKI-1 renal): > 100 µM | TGI (RXF 393 renal): > 100 µM | TGI (IGROV1 ovarian): > 100 µM | TGI (BT-549 breast): > 100 µM | TGI (A498 renal): > 100 µM | TGI (MOLT-4 leukemia): 93 µM

Cc1cc(N(CCC#N)CCC#N)ccc1/C(N=Nc1cccc([N+](=O)[O-])c1)=N/NC(=O)c1cc(Cl)ccc1O
TGI (SN12C renal): > 100 µM | TGI (SNB-75 CNS): 82.6 µM | TGI (SNB-19 CNS): > 100 µM | TGI (TK-10 renal): > 100 µM | TGI (CAKI-1 renal): 56.7 µM | TGI (RXF 393 renal): 72.2 µM | TGI (IGROV1 ovarian): 32.8 µM | TGI (BT-549 breast): 92.7 µM | TGI (A498 renal): 49.2 µM | TGI (MOLT-4 leukemia): 32.1 µM

CCCN1C(=O)CCC2=C1CCc1c2ccc(Cl)c1Cl
TGI (SN12C renal): > 100 µM | TGI (SNB-75 CNS): 33.9 µM | TGI (SNB-19 CNS): > 100 µM | TGI (TK-10 renal): 49.5 µM | TGI (CAKI-1 renal): > 100 µM | TGI (RXF 393 renal): 50.5 µM | TGI (IGROV1 ovarian): > 100 µM | TGI (BT-549 breast): > 100 µM | TGI (A498 renal): 33.2 µM | TGI (MOLT-4 leukemia): > 100 µM

C1COC(NC(C2CC2)C2CC2)=N1
TGI (SNB-75 CNS): > 100 µM | TGI (SNB-19 CNS): > 100 µM | TGI (TK-10 renal): > 100 µM | TGI (CAKI-1 renal): > 100 µM | TGI (RXF 393 renal): > 100 µM | TGI (IGROV1 ovarian): > 100 µM | TGI (BT-549 breast): > 100 µM | TGI (A498 renal): > 100 µM | TGI (MOLT-4 leukemia): > 100 µM
